Values quoted from earlier work, collected in patent US6475978B1, “Method of making water-softening and detergent compositions” (Unilever Home & Personal Care USA a division of Conopco, …, priority 1999, dated 2002).
Where two headings read alike, the source gives them in different places.

Details: at 20° C.
[1] = materials with solubility of less than 50 g per 100 g water

SMILES	Water Solubility [1] [g/100 g]	Water Solubility (materials with solubility of at least 50 g per 100 g water) [g/100 g]
O=BO[O-].[Na+] [Sodium perborate anhydrous]	3.7	–
O=P(O)(O)OP(=O)(O)OP(=O)(O)O [Sodium tripolyphosphate anhydrous]	15	–
NC(N)=O [Urea]	–	>100
